Measurements: the supplement of paper PMC10307832

Experiments:
Experiment in all cases: relative viability (nuclei count vs DMSO), 5 days (fraction); higher = more cells survive
BX 795 + Trametinib = compound: O=C(NCCCNc1nc(Nc2cccc(NC(=O)N3CCCC3)c2)ncc1I)c1cccs1 [BX 795] + CC(=O)Nc1cccc(-n2c(=O)n(C3CC3)c(=O)c3c(Nc4ccc(I)cc4F)n(C)c(=O)c(C)c32)c1 [Trametinib] (partner 0.02 µM)
How it was run: (§1)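 Lung cancer cell lines, seeded in 1536-well plates, were treated the following day by pin tool with a single drug or with five library-drug doses (not always all listed) in √10 steps on top of a fixed anchor-drug dose. Cells were fixed and nuclei stained in one step after 5 days, and nuclei were counted. Relative viability is the nuclei count for treated wells divided by that for vehicle wells, reported as medians of duplicate plates.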

BX 795 + Foretinib = compound: O=C(NCCCNc1nc(Nc2cccc(NC(=O)N3CCCC3)c2)ncc1I)c1cccs1 [BX 795] + COc1cc2c(Oc3ccc(NC(=O)C4(C(=O)Nc5ccc(F)cc5)CC4)cc3F)ccnc2cc1OCCCN1CCOCC1 [Foretinib] (partner 0.25 µM)
How it was run: as §1

BX 795 + Lapatinib = compound: O=C(NCCCNc1nc(Nc2cccc(NC(=O)N3CCCC3)c2)ncc1I)c1cccs1 [BX 795] + CS(=O)(=O)CCNCc1ccc(-c2ccc3ncnc(Nc4ccc(OCc5cccc(F)c5)c(Cl)c4)c3c2)o1 [Lapatinib] (partner 2 µM)
How it was run: as §1

BX 795 + Dasatinib = compound: O=C(NCCCNc1nc(Nc2cccc(NC(=O)N3CCCC3)c2)ncc1I)c1cccs1 [BX 795] + Cc1nc(Nc2ncc(C(=O)Nc3c(C)cccc3Cl)s2)cc(N2CCN(CCO)CC2)n1 [Dasatinib] (partner 0.075 µM)
How it was run: as §1

BX 795 + Vorinostat = compound: O=C(NCCCNc1nc(Nc2cccc(NC(=O)N3CCCC3)c2)ncc1I)c1cccs1 [BX 795] + O=C(CCCCCCC(=O)Nc1ccccc1)NO [Vorinostat] (partner 1 µM)
How it was run: as §1

Cell Line | relative viability (BX 795 + Trametinib; first compound 0.04 µM) | relative viability (BX 795 + Trametinib; first compound 0.1265 µM) | relative viability (BX 795 + Trametinib; first compound 0.4 µM) | relative viability (BX 795 + Trametinib; first compound 1.265 µM) | relative viability (BX 795 + Foretinib; first compound 0.04 µM) | relative viability (BX 795 + Foretinib; first compound 0.1265 µM) | relative viability (BX 795 + Foretinib; first compound 0.4 µM) | relative viability (BX 795 + Foretinib; first compound 1.265 µM) | relative viability (BX 795 + Lapatinib; first compound 0.04 µM) | relative viability (BX 795 + Lapatinib; first compound 0.1265 µM) | relative viability (BX 795 + Lapatinib; first compound 0.4 µM) | relative viability (BX 795 + Lapatinib; first compound 1.265 µM) | relative viability (BX 795 + Dasatinib; first compound 0.04 µM) | relative viability (BX 795 + Dasatinib; first compound 0.1265 µM) | relative viability (BX 795 + Dasatinib; first compound 0.4 µM) | relative viability (BX 795 + Dasatinib; first compound 1.265 µM) | relative viability (BX 795 + Vorinostat; first compound 0.04 µM) | relative viability (BX 795 + Vorinostat; first compound 0.1265 µM) | relative viability (BX 795 + Vorinostat; first compound 0.4 µM) | relative viability (BX 795 + Vorinostat; first compound 1.265 µM)
NCI-H2009 | 0.264 | 0.227 | 0.274 | 0.179 | 1.21 | 1.19 | 1.16 | 1.11 | 0.912 | 0.86 | 0.988 | 0.671 | 0.261 | 0.292 | 0.249 | 0.162 | 0.731 | 0.67 | 0.818 | 0.591
NCI-H2023 | 0.797 | 0.468 | 0.456 | 0.233 | 0.722 | 0.912 | 0.427 | 0.551 | 0.538 | 0.749 | 0.32 | 0.522 | 0.5 | 0.54 | 0.306 | 0.302 | 0.471 | 0.689 | 0.189 | 0.3
NCI-H2085 | 0.645 | 0.512 | 0.669 | 0.484 | 1.05 | 1.05 | 0.873 | 0.809 | 0.881 | 0.781 | 0.741 | 0.642 | 0.25 | 0.214 | 0.221 | 0.249 | 0.78 | 0.809 | 0.778 | 0.725
NCI-H2087 | 0.235 | 0.163 | 0.242 | 0.221 | 1.06 | 1.13 | 1.24 | 0.623 | 1.24 | 1.05 | 1.08 | 0.975 | 0.895 | 0.814 | 0.79 | 0.619 | 0.762 | 1.06 | 0.95 | 0.587
NCI-H2126 | 0.611 | 0.537 | 0.685 | 0.534 | 1.31 | 1.02 | 1.3 | 1.03 | 0.728 | 0.752 | 0.837 | 0.767 | 0.649 | 0.658 | 0.507 | 0.599 | 0.805 | 0.799 | 0.913 | 0.73
NCI-H2170 | 0.948 | 0.945 | 0.93 | 0.951 | 0.979 | 1.02 | 1.05 | 0.998 | 0.26 | 0.28 | 0.262 | 0.289 | 0.594 | 0.517 | 0.476 | 0.64 | 0.942 | 0.985 | 0.824 | 0.817
NCI-H2228 | 0.689 | 0.713 | 0.389 | 0.349 | 1.05 | 0.967 | 1.13 | 0.625 | 0.87 | 1.3 | 0.791 | 0.319 | 0.568 | 0.594 | 0.388 | 0.32 | 0.761 | 0.898 | 0.63 | 0.556
NCI-H2347 | 0.282 | 0.239 | 0.29 | 0.275 | 1.03 | 0.915 | 0.8 | 0.773 | 0.945 | 0.903 | 1.16 | 0.914 | 0.385 | 0.325 | 0.293 | 0.283 | 0.5 | 0.633 | 0.717 | 0.505
